Data taken from the NIST ThermoML archive (doi:10.1016/j.jct.2014.01.016).

Settings: 298.15 K; Liquid; Gas chromatography

Structure (SMILES) | vapor or sublimation pressure
CCCCCCC1CCCC(=O)O1 (stereo unspecified) [δ-undecanolactone] | 9e-05 kPa
CCCCCCC1CCC(=O)O1 (stereo unspecified) [γ-decalactone] | 0.00033 kPa
CCCCCCCCC1CCC(=O)O1 (stereo unspecified) [γ-dodecanolactone] | 4e-05 kPa
CCCCC1CCC(=O)O1 (stereo unspecified) [γ-octanolactone] | 0.00278 kPa
CCCCCCCC1CCC(=O)O1 (stereo unspecified) [γ-undecanolactone] | 0.00012 kPa
CCCC1CCCC(=O)O1 (stereo unspecified) [2H-pyran-2-one, tetrahydro-6-propyl-] | 0.00221 kPa
CCC1CCC(=O)O1 (stereo unspecified) [2(3H)-furanone, 5-ethyldihydro-] | 0.0225 kPa
CCCCCCCC1CCCC(=O)O1 (stereo unspecified) [δ-dodecanolactone] | 3e-05 kPa
CCCCCC1CCCC(=O)O1 (stereo unspecified) [2H-pyran-2-one, tetrahydro-6-pentyl-] | 0.00027 kPa
CCCCCC1CCC(=O)O1 (stereo unspecified) [2(3H)-furanone, dihydro-5-pentyl-] | 0.00097 kPa
CCCCC1CCCC(=O)O1 (stereo unspecified) [δ-nonanolactone] | 0.00076 kPa
